In US8952157B2, “Apoptosis-inducing agents for the treatment of cancer and immune and autoimmune diseases” (AbbVie Inc., priority 2008, dated 2015) one finds Ki data, which are given here for 14 molecules.

Sequence of GST-Bcl-2 (P10415 whole entry): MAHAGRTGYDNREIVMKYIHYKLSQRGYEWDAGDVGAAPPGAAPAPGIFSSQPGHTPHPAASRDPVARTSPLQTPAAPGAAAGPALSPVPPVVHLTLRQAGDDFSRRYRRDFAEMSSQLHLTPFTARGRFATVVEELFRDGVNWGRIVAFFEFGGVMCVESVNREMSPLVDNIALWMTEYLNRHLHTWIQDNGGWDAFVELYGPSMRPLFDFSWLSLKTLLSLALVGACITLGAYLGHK

One assay concerns the target GST-Bcl-2 (Homo sapiens (Human), UniProt P10415). The experiment in a line: Time Resolved-Fluorescence Resonance Energy Transfer (TR-FRET) Bcl-2 binding assay.
Conditions: not given
The essentials: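 Ki values derived from TR-FRET displacement of F-Bak peptide from GST-Bcl-2, detected with Tb-labelled anti-GST antibody (ex 340, em 520/495 nm). Compound dilution series started at 50 μM (2× starting concentration); room-temperature incubation 3 hours.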
By Ki is commonly meant the dissociation constant of the complex between target and ligand, obtained from inhibition or displacement. Consider `CC1(C)CCC(CN2CCN(c3ccc(C(=O)NS(=O)(=O)c4ccc(N[C@H]5CC[C@H](N6CCOCC6)CC5)c([N+](=O)[O-])c4)c(Oc4cccc(Cl)c4)c3)CC2)=C(c2ccc(Cl)cc2)C1` [Example 205, Trans-2-(3-chlorophenoxy)-4-(4-{[2-(4-chlorophenyl)-4,4-dimethylcyclohex-1-en-1-yl]methyl}piperazin-1-yl)-N-({4-[(4-morpholin-4-ylcyclohexyl)amino]-3-nitrophenyl}sulfonyl)benzamide], for which the inhibitory constant (Ki) was determined as 0.153 nM.

Still in this assay, the particulars now being: GST-Bcl-2 1 nM, F-Bak peptide probe 100 nM, Tb-anti-GST antibody 1 nM; Ki by Wang's equation.
Consider `CC1(C)CCC(CN2CCN(c3ccc(C(=O)NS(=O)(=O)c4ccc(NC5CCN(C6CCOCC6)CC5)c([N+](=O)[O-])c4)c(Oc4cc5cc[nH]c5c(F)c4F)c3)CC2)=C(c2ccc(Cl)cc2)C1` [Example 201, 4-(4-{[2-(4-chlorophenyl)-4,4-dimethylcyclohex-1-en-1-yl]methyl}piperazin-1-yl)-2-[(6,7-difluoro-1H-indol-5-yl)oxy]-N-({3-nitro-4-[(1-tetrahydro-2H-pyran-4-ylpiperidin-4-yl)amino]phenyl}sulfonyl)benzamide], for which the affinity corresponds to a Ki of 0.01 nM. The molecule `CN1CCC(Nc2ccc(S(=O)(=O)NC(=O)c3ccc(N4CCN(CC5=C(c6ccc(Cl)cc6)CC(C)(C)CC5)CC4)cc3Oc3cccc4c3ccn4C(=O)OC(C)(C)C)cc2[N+](=O)[O-])CC1` [Example 202, tert-butyl 4-(5-(4-{[2-(4-chlorophenyl)-4,4-dimethylcyclohex-1-en-1-yl]methyl}piperazin-1-yl)-2-{[({4-[(1-methylpiperidin-4-yl)amino]-3-nitrophenyl}sulfonyl)amino]carbonyl}phenoxy)-1H-indole-1-carboxylate] registered a Ki of 20 nM. Same read-out and setting: as for `CN(C)C1CCC(Nc2ccc(S(=O)(=O)NC(=O)c3ccc(N4CCN(CC5=C(c6ccc(Cl)cc6)CC(C)(C)CC5)CC4)cc3Oc3cccc(Cl)c3)cc2[N+](=O)[O-])CC1` (centres unmarked) [Example 203, 2-(3-chlorophenoxy)-4-(4-{[2-(4-chlorophenyl)-4,4-dimethylcyclohex-1-en-1-yl]methyl}piperazin-1-yl)-N-[(4-{[4-(dimethylamino)cyclohexyl]amino}-3-nitrophenyl)sulfonyl]benzamide], the figure is 0.084 nM. In the case of `CCN(CC)C1CCC(Nc2ccc(S(=O)(=O)NC(=O)c3ccc(N4CCN(CC5=C(c6ccc(Cl)cc6)CC(C)(C)CC5)CC4)cc3Oc3cccc(Cl)c3)cc2[N+](=O)[O-])CC1` (centres unmarked) [Example 204, 2-(3-chlorophenoxy)-4-(4-{[2-(4-chlorophenyl)-4,4-dimethylcyclohex-1-en-1-yl]methyl}piperazin-1-yl)-N-[(4-{[4-(diethylamino)cyclohexyl]amino}-3-nitrophenyl)sulfonyl]benzamide], the Ki was 0.075 nM.

Consider `CC(c1ccccc1-c1ccc(Cl)cc1)N1CCN(c2ccc(C(=O)NS(=O)(=O)c3ccc(NC4CCN(C)CC4)c([N+](=O)[O-])c3)c(Oc3ccccc3Cl)c2)CC1` (centres unmarked) [Example 206, 4-{4-[1-(4′-chloro-1,1′-biphenyl-2-yl)ethyl]piperazin-1-yl}-2-(2-chlorophenoxy)-N-({4-[(1-methylpiperidin-4-yl)amino]-3-nitrophenyl}sulfonyl)benzamide], for which affinity was put at a Ki of 0.037 nM. Still for that read-out and setting: as for `CN1CCC(Nc2ccc(S(=O)(=O)NC(=O)c3ccc(N4CCN(CC5=C(c6ccc(Cl)cc6)CC(C)(C)CC5)CC4)cc3Oc3ccc(O)cc3Cl)cc2[N+](=O)[O-])CC1` [Example 207, 2-(2-chloro-4-hydroxyphenoxy)-4-(4-{[2-(4-chlorophenyl)-4,4-dimethylcyclohex-1-en-1-yl]methyl}piperazin-1-yl)-N-({4-[(1-methylpiperidin-4-yl)amino]-3-nitrophenyl}sulfonyl)benzamide], the figure is 0.074 nM. For the molecule `CN1CCN(Nc2ccc(S(=O)(=O)NC(=O)c3ccc(N4CCN(CC5=C(c6ccc(Cl)cc6)CC(C)(C)CC5)CC4)cc3Oc3ccc(O)cc3Cl)cc2[N+](=O)[O-])CC1` [Example 208, 2-(2-chloro-4-hydroxyphenoxy)-4-(4-{[2-(4-chlorophenyl)-4,4-dimethylcyclohex-1-en-1-yl]methyl}piperazin-1-yl)-N-({4-[(4-methylpiperazin-1-yl)amino]-3-nitrophenyl}sulfonyl)benzamide], affinity was put at a Ki of 0.261 nM. Same read-out and setting: as for `CN1CCC(Nc2ccc(S(=O)(=O)NC(=O)c3ccc(N4CCN(CC5=C(c6ccc(Cl)cc6)CC(C)(C)CC5)CC4)cc3Oc3cc(F)cc4[nH]ccc34)cc2[N+](=O)[O-])CC1` [Example 209, 4-(4-{[2-(4-chlorophenyl)-4,4-dimethylcyclohex-1-en-1-yl]methyl}piperazin-1-yl)-2-[(6-fluoro-1H-indol-4-yl)oxy]-N-({4-[(1-methylpiperidin-4-yl)amino]-3-nitrophenyl}sulfonyl)benzamide], the figure is under 0.01 nM. `CC1(C)CCC(CN2CCN(c3ccc(C(=O)NS(=O)(=O)c4ccc(NC5CCN(C6CCOCC6)CC5)c([N+](=O)[O-])c4)c(Oc4cc(F)cc5[nH]ccc45)c3)CC2)=C(c2ccc(Cl)cc2)C1` [Example 210, 4-(4-{[2-(4-chlorophenyl)-4,4-dimethylcyclohex-1-en-1-yl]methyl}piperazin-1-yl)-2-[(6-fluoro-1H-indol-4-yl)oxy]-N-({3-nitro-4-[(1-tetrahydro-2H-pyran-4-ylpiperidin-4-yl)amino]phenyl}sulfonyl)benzamide] registered a Ki of 0.02 nM.

With `CN1CCN(Nc2ccc(S(=O)(=O)NC(=O)c3ccc(N4CCN(CC5=C(c6ccc(Cl)cc6)CC(C)(C)CC5)CC4)cc3Oc3ccc(O)cc3Cl)cc2S(=O)(=O)C(F)(F)F)CC1` [Example 211, 2-(2-chloro-4-hydroxyphenoxy)-4-(4-{[2-(4-chlorophenyl)-4,4-dimethylcyclohex-1-en-1-yl]methyl}piperazin-1-yl)-N-({4-[(4-methylpiperazin-1-yl)amino]-3-[(trifluoromethyl)sulfonyl]phenyl}sulfonyl)benzamide], the Ki is 1.34 nM.

The molecule `CN(C)CCCNc1ccc(S(=O)(=O)NC(=O)c2ccc(N3CCN(CC4=C(c5ccc(Cl)cc5)CC(C)(C)CC4)CC3)cc2Oc2cccc3c2c(CN2CCN(C)CC2)cn3CN2CCN(C)CC2)cc1[N+](=O)[O-]` [Example 212, 2-({1,3-bis[(4-methylpiperazin-1-yl)methyl]-1H-indol-4-yl}oxy)-4-(4-{[2-(4-chlorophenyl)-4,4-dimethylcyclohex-1-en-1-yl]methyl}piperazin-1-yl)-N-[(4-{[3-(dimethylamino)propyl]amino}-3-nitrophenyl)sulfonyl]benzamide] came in with an inhibitory constant (Ki) of 0.375 nM. On the same count and under the same terms, the figure for `CN(C)CCCNc1ccc(S(=O)(=O)NC(=O)c2ccc(N3CCN(CC4=C(c5ccc(Cl)cc5)CC(C)(C)CC4)CC3)cc2Oc2cccc3[nH]cc(CN4CCN(C)CC4)c23)cc1[N+](=O)[O-]` [Example 213, 4-(4-{[2-(4-chlorophenyl)-4,4-dimethylcyclohex-1-en-1-yl]methyl}piperazin-1-yl)-N-[(4-{[3-(dimethylamino)propyl]amino}-3-nitrophenyl)sulfonyl]-2-({3-[(4-methylpiperazin-1-yl)methyl]-1H-indol-4-yl}oxy)benzamide] is 0.031 nM. Consider `CN1CCC(Nc2ccc(S(=O)(=O)NC(=O)c3ccc(N4CCN(CC5=C(c6ccc(Cl)cc6)CC(C)(C)CC5)CC4)cc3Oc3ccccc3C(=O)N(C)C)cc2[N+](=O)[O-])CC1` [Example 214, 2-(5-(4-((2-(4-chlorophenyl)-4,4-dimethylcyclohex-1-enyl)methyl)piperazin-1-yl)-2-(4-(1-methylpiperidin-4-ylamino)-3-nitrophenylsulfonylcarbamoyl)phenoxy)-N,N-dimethylbenzamide], for which affinity was put at a Ki of 0.221 nM.
